From patent US20230348459A1, “PYRROLIDINE COMPOUND AND USE THEREOF” (SIMCERE PHARMACEUTICAL CO., LTD., priority 2020, published 2023)

Legend:
[1] = Plasma protein binding rate, equilibrium dialysis, mouse plasma; format: in vitro ADME; details: pH 7.4, CD-1 mouse plasma, 6 hours dialysis
Protocol: (§1) The protein binding rate of the compounds of the present invention in the plasma of five species (human, monkey, dog, rat and mouse) was determined by the following test method.
(§2) • 1. Human plasma (BioIVT), beagle dog plasma (BioIVT), SD rat plasma (BioIVT), CD-1 mouse plasma (BioIVT); • 2. 96-well equilibrium dialysis plate (HTDialysis LLC, Gales Ferry, CT, HTD96B), equilibrium dialysis membrane (MWCO 12-14 K, #1101); • 3. Positive control compound warfarin; • 4. ABI QTrap 5500 liquid chromatography-mass spectrometry.
(§3) 1. Preparation of a buffer with a concentration of 100 mM sodium phosphate and 150 mM NaCl: an alkaline solution with a concentration of 14.2 g/L Na2HPO4 and 8.77 g/L NaCl was prepared with ultrapure water, and an acidic solution with a concentration of 12.0 g/L NaH2PO4 and 8.77 g/L NaCl was prepared with ultrapure water. The alkaline solution was titrated with the acidic solution to pH 7.4 to prepare a buffer with a concentration of 100 mM sodium phosphate and 150 mM NaCl.
(§4) 2. Preparation of dialysis membrane: the dialysis membrane was soaked in ultrapure water for 60 minutes to separate the membrane into two pieces, then soaked in 20% ethanol for 20 minutes, and finally soaked in the buffer used for dialysis for 20 minutes.
(§5) 3. Preparation of plasma: the frozen plasma was quickly thawed at room temperature, then the plasma was centrifuged at 3,220 g at 4° C. for 10 min to remove clots, and the supernatant was collected into a new centrifuge tube. The pH of the plasma was measured and recorded, and the plasma with pH of 7-8 was used.
(§6) 3. Preparation of compound-containing plasma samples: 10 mM stock solution of compounds of the present invention or positive control compounds were diluted with DMSO to obtain 200 µM working solution. […]
(§7) The peak areas of the compounds on the buffer side and the plasma side were determined. […]
(§8) All the data was calculated by the Microsoft Excel software. The plasma protein binding rate values of the compounds of the present invention were calculated.

[2] = molecular target: voltage-gated potassium ion channel hERG (Homo sapiens (Human), UniProt Q12809); experiment: hERG manual patch clamp in HEK293 cells; format: cell-based; details: HEK293 cells stably expressing hERG
Sequence of voltage-gated potassium ion channel hERG (Q12809 whole entry): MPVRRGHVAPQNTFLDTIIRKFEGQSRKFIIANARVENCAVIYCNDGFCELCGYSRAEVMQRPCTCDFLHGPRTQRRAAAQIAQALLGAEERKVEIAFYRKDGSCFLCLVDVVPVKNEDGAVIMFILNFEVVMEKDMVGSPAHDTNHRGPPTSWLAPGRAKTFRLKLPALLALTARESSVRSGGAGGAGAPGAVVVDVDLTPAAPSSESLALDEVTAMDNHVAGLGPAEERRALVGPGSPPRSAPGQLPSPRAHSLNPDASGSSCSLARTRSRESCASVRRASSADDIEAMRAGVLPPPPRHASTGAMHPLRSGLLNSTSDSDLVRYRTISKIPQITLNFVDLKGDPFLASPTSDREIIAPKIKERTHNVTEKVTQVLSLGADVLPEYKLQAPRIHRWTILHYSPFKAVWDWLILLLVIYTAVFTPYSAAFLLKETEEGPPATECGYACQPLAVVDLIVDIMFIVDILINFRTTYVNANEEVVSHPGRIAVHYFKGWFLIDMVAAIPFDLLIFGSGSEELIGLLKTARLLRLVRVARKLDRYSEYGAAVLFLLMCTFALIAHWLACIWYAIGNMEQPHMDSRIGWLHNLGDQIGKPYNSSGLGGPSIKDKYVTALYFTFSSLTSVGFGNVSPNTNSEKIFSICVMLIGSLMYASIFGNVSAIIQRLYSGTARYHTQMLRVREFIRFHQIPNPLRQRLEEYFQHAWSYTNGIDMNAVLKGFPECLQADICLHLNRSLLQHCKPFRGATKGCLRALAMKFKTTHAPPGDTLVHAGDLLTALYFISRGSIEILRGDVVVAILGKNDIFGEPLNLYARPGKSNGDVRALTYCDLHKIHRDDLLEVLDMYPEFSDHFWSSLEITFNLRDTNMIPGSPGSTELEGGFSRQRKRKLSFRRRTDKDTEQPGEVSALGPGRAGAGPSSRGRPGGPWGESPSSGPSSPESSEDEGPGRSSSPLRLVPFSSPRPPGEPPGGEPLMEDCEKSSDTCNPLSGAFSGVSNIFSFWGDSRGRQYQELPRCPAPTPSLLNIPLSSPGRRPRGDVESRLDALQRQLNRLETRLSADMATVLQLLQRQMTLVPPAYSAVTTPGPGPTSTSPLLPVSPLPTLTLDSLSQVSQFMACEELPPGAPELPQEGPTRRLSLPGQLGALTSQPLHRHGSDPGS
Protocol: HEK293 cell line stably expressing hERG ion channel (Cat. No. K1236) was purchased from Invitrogen. The cell line was cultured in the medium containing 85% DMEM, 10% dialysis fetal bovine serum, 0.1 mM non-essential amino acid solution, 100 U/mL penicillin-streptomycin solution, 25 mM HEPES, 5 µg/mL blasticidin and 400 µg/mL geneticin. When the cell density increased to 40%-80% of the bottom area of the culture dish, trypsin was used for digestion and passage, and the cells were passaged three times weekly. Before the experiment, the cells were cultured in a 6 cm culture dish at a density of 5 × 10^5 and induced by adding 1 µg/mL doxycycline for 48 hours, and then the cells were digested and inoculated on glass slides for subsequent manual patch clamp experiments.
1) According to the SOP-ADMET-MAN-007 standard operating procedure, the compounds to be tested were dissolved with DMSO and prepared into the stock solution with a final concentration of 10 mM. […]
10. Determination of the inhibitory effect of the compounds to be tested on hERG current: First, the hERG current measured in extracellular fluid containing 0.1% DMSO was used as the detection baseline. […] By waiting for about 5 minutes after the completion of each perfusion, the compound was allowed to fully act on the cells, and the hERG currents were simultaneously recorded. After the currents to be recorded became stable, the last 5 hERG current values were recorded, and the average value thereof was taken as the final current value thereof at a specific concentration. […] In addition, the positive compound dofelide was detected with the same patch clamp system both before and after the completion of the test compound experiment to ensure the reliability and sensitivity of the entire detection system.
1) After perfusion of blank solvent or compound gradient solution, the average value of 5 continuous current values obtained in a stable state is calculated as “tail current valueblank” and “tail current valuecompound”, respectively.
2) The percent current inhibition was calculated by the following formula. […]

[3] = Plasma protein binding rate, equilibrium dialysis, dog plasma; format: in vitro ADME; details: pH 7.4, Beagle dog plasma, 6 hours dialysis
Protocol: as §1, §2, §3, §4, §5, §6, §7, §8

## C[C@@H]1Cc2c([nH]c3ccccc23)C(c2c(F)cc(N[C@H]3CCN(CCCF)C3)cc2F)N1CC(F)(F)F (stereo in doubt) [Example 4, (S)-N-(3,5-difluoro-4-((1S,3R)-3-methyl-2-(2,2,2-trifluoroethyl)-2,3,4,9-tetrahydro-1H-pyridino[3,4-b]indol-1-yl)phenyl)-1-(3-fluoropropyl)pyrrolidin-3-amine]
[1]
  fraction unbound at 6 h, 1 µM: 0.002
[2]
  IC50: 3.7 µM
[3]
  fraction unbound at 6 h, 1 µM: 0.002

## C[C@@H]1Cc2c([nH]c3ccccc23)C(c2c(F)cc(N[C@H]3CCN(CCCF)C3)cc2F)N1CC(F)(F)CO (stereo in doubt) [Example 7, 3-((1S,3R)-1-(2,6-difluoro-4-(((S)-1-(3-fluoropropyl)pyrrolidin-3-yl)amino)phenyl)-3-methyl-3,4-dihydro-1H-pyridino [3,4-b]indole-2(9H)-yl)-2,2-difluoropropane-1-ol]
[1]
  fraction unbound at 6 h, 1 µM: 0.012
[2]
  IC50: 8.4 µM
[3]
  fraction unbound at 6 h, 1 µM: 0.012

## C[C@@H]1Cc2c([nH]c3ccccc23)[C@@H](c2ccc(N[C@H]3CCN(CCCF)C3)cn2)N1CC(F)(F)F [Example 3, N-((S)-1-(3-fluoropropyl)pyrrolidin-3-yl)-6-((1S,3R)-3-methyl-2-(2,2,2-trifluoroethyl)-2,3,4,9-tetrahydro-1H-pyridino[3,4-b]indol-1-yl)pyridine-3-amine]
[1]
  fraction unbound at 6 h, 1 µM: 0.019
[2]
  IC50: 10 µM
[3]
  fraction unbound at 6 h, 1 µM: 0.013
